Measurements published in PMC3366674, “Epigenetic Tailoring for the Production of Anti-Infective Cytosporones from the Marine Fungus Leucostoma persoonii” (Marine Drugs, 2012).
Values after ≈ are worked out from the molar mass of the structure shown. Where two headings read alike, the source gives them in different places.

What was measured:
[1] = test system: methicillin-resistant Staphylococcus aureus (MRSA) USA100; experiment: Microtiter MIC determination against MRSA USA100; assay type: cell-based; conditions: for MIC: Staphylococcus aureus; for activity against MRSA: pure compound
Protocol: (§1) The strain of MRSA used in our bioassays is a hospital-associated clone from the CDC USA 100 lineage. […] It is thus deemed an extensively drug resistant strain, and something of a worst-case scenario MRSA isolate.
(§2) The minimum inhibitory concentration (MIC) of the pure compounds was determined as follows. Broth cultures were prepared for S. aureus strains as described above. These were diluted 1:1000 in fresh Trypticase Soy Broth (TSB) and 200 µL was applied to the wells of a sterile 96-well plate. Compounds (in DMSO) were added to wells at concentrations ranging from 1, 10, 25, 50 to 100 µg/mL in a volume no greater than 5 µL. Concentrations were adjusted to lower levels if applicable. Samples were mixed by pipetting and the plates were incubated at 37 °C overnight. MICs were determined by visual inspection for the minimum concentration of compound producing no bacterial growth, as determined by a lack of turbidity. Assays were repeated three times in order to verify the MIC determinations. […] Minimum bactericidal concentration (MBC) counts were performed on the MIC cultures by removing the growth media from each well the following morning, serially diluting, and plating onto Trypticase Soy Agar (TSA). These were incubated overnight at 37 °C and the bacterial loads of each well were determined by enumeration. Percentage killing was determined by the comparison of drug-containing wells to control wells where no compound was added.

[2] = test system: methicillin-resistant Staphylococcus aureus (MRSA) USA100; experiment: Minimum bactericidal concentration (MBC) counts on MIC cultures; assay type: cell-based; conditions: for fold reduction in bacterial viability at MIC: MRSA USA100, at MIC; for MBC: Staphylococcus aureus, MRSA USA100, read-out: MRSA MBC90
Protocol: as §1, §2

MRSA biofilm = experiment: Minimum biofilm eradication count (MBEC) biofilm assay; assay type: cell-based, Staphylococcus aureus; conditions: MRSA USA100 biofilm; for MRSA MBEC90: 24 h exposure
Protocol: as §1
We performed minimum biofilm eradication count (MBEC) assays on cytosporones to assess their activity towards this form of bacterial growth. These were performed by generating S. aureus biofilms in a 96-well microtitre plate, as previously described. Once established, biofilm cultures were exposed to fresh growth media containing a range of concentrations of 15, 20, 25 and 50 µg/mL of the cytosporones. Control analyses were performed in parallel containing no compound. Cultures were incubated, covered, for 24 h at 37 °C without shaking. After this time the culture media was aseptically aspirated, and the wells rinsed twice with PBS to remove non-adherent cells. Fresh PBS (100 µL) was then added to the wells, and mixed by vigorous pipetting, to dislodge the biofilm matrix from the surface of the wells. These samples were serially diluted, plated on TSA, with cells enumerated after overnight incubation at 37 °C. Each of the above analyses was performed with 3 biological replicates, each of which also had 3 technical replicates. By comparing CFU/mL against control, no-exposed cultures, we were able to obtain a quantitative assessment of the impact of cytosporones on S. aureus biofilms.

A549 cells = experiment: A549 cytotoxicity assay (CellTiter 96 Aqueous One); assay type: cell-based, human; conditions: 72 h incubation
Protocol: Cell line A549 (adenocarcinomic human alveolar epithelial cells) was cultured in F-12K Nutrient Mixture (Kaighn’s Modification) media containing L-glutamine, supplemented with 10% fetal bovine serum and 1% penicillin-streptomycin. For the assay, the A549 cells were diluted to 1.33 × 10^5 cells/mL in DMEM F12 media with L-glutamine, without HEPES or phenol red, and supplemented with 2% fetal bovine serum and 1% penicillin-streptomycin. The A549 cells were dispensed into 96 well plates at a volume of 90 µL/well giving a final concentration of 12,000 cells per well. Plates were incubated for 24 h at 37 °C and 5% CO2. After 24 h, 10 µL of the test compounds at concentrations of 0.4, 1.2, 3.7, 11, 33.3 and 100 µg/mL were added to the 96 well plates containing A549 cells followed by 72 h of incubation at 37 °C and 5% CO2. A Beckman-Coulter Biomek NX 3000 was used to dispense cells and dispense test compounds to the 96 well plates. Positive (bronopol) and negative (blank DMSO) controls were included on each assay plate. After the incubation period, cell proliferation was assessed using Promega’s CellTiter 96 Aqueous One Solution Cell Proliferation Assay reagent. Into each well 20 µL of reagent was added followed by incubation for 3 h at 37 °C and 5% CO2. A Biotek plate reader was used to read absorbance at 490 nm and IC50 values were determined for each test compound.

Plasmodium falciparum = experiment: Malaria assay (luciferase-reporter Plasmodium falciparum); assay type: cell-based; conditions: for activity toward Plasmodium falciparum: levels tested up to 10 µg/mL
Protocol: Mangrove endophytes isolated as described above were subject to small-scale cultivation on Sabouraud dextrose agar (SDA), freeze dried, then extracted with methanol. Extracts at a concentration of 30 mg/mL were screened in a luciferase-reporter Plasmodium falciparum assay.
Malaria screening was done as previously reported.

[3] = test system: methicillin-sensitive S. aureus (MSSA); experiment: Microtiter MIC determination against MSSA; assay type: cell-based; conditions: Staphylococcus aureus, methicillin-sensitive S. aureus strains
Protocol: as §2

[4] = MRSA USA100, overnight 37 °C, visual turbidity, read-out: MRSA MIC

SMILES | MIC [1, 4] [µM] | fold reduction in bacterial viability at MIC [2] [fold] | bacterial killing at twice the MIC ([2]; MRSA USA100, at twice the MIC) | MBC [2] [µM] | MRSA MBEC90 (MRSA biofilm) [µM] | fold reduction in biofilm (MBEC assay) at MIC (MRSA biofilm) [fold] | fold reduction in biofilm formation at twice the MIC (MRSA biofilm; at twice the MIC) [fold] | IC50 (A549 cells; Homo sapiens) [µM] | IC90 (A549 cells; Homo sapiens, A549, 72 h) [µM] | activity toward Plasmodium falciparum (Plasmodium falciparum) | activity against MRSA [1] | IC90 (A549 cells; listed as Cytosporone E (3)) [µM] | IC90 (Plasmodium falciparum; Plasmodium falciparum, read-out: IC90 toward Plasmodium falciparum) [µM] | MIC [3] [µM] | MIC ([1]; read-out: MIC of positive control) [µg/mL]
CCCCCCCC(=O)c1c(O)cc(O)cc1CC(=O)OCC [Cytosporone B, cytosporone B] | 78 | 4.2 | complete killing of the bacteria | 93 (≈ 30 µg/mL) | 110 | 2 | 168 | 170 | 190 | inactive |  |  |  |  | 
CCCCCCCC1OC(=O)Cc2cc(O)cc(O)c21 (stereo not shown) [Cytosporone C, cytosporone C] | > 358 |  |  |  |  |  |  | 690 | 840 | inactive | inactive |  |  |  | 
CCCCCCCC1OC(=O)c2cc(O)c(O)c(O)c21 (stereo not shown) [Cytosporone E, cytosporone E] | 72 | > 5000 |  | 45 (≈ 12.6 µg/mL) | 39 | 183 |  | 280 | 437 |  |  | 440 | 13 | 72 (≈ 20.2 µg/mL) | 
CCCCCCCC(=O)c1c(O)cc(O)cc1CC(=O)OCC(O)CO (stereo not shown) [Cytosporone R, cytosporone R] | 503 |  |  |  |  |  |  |  |  |  | inactive |  |  |  | 
CN[C@H](CC(C)C)C(=O)N[C@H]1C(=O)N[C@@H](CC(N)=O)C(=O)N[C@H]2C(=O)N[C@H]3C(=O)N[C@H](C(=O)N[C@H](C(=O)O)c4cc(O)cc(O)c4-c4cc3ccc4O)[C@H](O)c3ccc(c(Cl)c3)Oc3cc2cc(c3O[C@@H]2O[C@H](CO)[C@@H](O)[C@H](O)[C@H]2O[C@H]2C[C@](C)(N)[C@H](O)[C@H](C)O2)Oc2ccc(cc2Cl)[C@H]1O [vancomycin, reference compound] |  |  |  |  |  |  |  |  |  |  |  |  |  |  | 1
